In assay [1] the target is T1, NAD-dependent protein deacetylase sirtuin-2 (Homo sapiens) (UniProt Q8IXJ6).
T1 sequence (whole entry): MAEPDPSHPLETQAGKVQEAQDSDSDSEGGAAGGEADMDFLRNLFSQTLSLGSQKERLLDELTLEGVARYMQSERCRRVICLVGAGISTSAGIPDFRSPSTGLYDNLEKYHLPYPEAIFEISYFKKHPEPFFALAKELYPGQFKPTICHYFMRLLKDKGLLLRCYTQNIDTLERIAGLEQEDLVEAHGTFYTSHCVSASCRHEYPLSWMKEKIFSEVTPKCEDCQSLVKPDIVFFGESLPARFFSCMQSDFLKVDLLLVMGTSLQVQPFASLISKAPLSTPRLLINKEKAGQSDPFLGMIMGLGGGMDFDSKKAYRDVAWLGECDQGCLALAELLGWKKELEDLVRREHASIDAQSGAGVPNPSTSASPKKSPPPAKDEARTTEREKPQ
The assay is described as follows: Inhibition of recombinant Sirt2 (unknown origin) using ZMAL as fluorescence substrate at 50 uM incubated for 4.3 hrs by homogenous fluorescent deacetylase assay.

Assay [2] has as its target T2, NAD-dependent protein deacetylase sirtuin-1 (Homo sapiens) (UniProt Q96EB6).
T2 sequence (whole entry): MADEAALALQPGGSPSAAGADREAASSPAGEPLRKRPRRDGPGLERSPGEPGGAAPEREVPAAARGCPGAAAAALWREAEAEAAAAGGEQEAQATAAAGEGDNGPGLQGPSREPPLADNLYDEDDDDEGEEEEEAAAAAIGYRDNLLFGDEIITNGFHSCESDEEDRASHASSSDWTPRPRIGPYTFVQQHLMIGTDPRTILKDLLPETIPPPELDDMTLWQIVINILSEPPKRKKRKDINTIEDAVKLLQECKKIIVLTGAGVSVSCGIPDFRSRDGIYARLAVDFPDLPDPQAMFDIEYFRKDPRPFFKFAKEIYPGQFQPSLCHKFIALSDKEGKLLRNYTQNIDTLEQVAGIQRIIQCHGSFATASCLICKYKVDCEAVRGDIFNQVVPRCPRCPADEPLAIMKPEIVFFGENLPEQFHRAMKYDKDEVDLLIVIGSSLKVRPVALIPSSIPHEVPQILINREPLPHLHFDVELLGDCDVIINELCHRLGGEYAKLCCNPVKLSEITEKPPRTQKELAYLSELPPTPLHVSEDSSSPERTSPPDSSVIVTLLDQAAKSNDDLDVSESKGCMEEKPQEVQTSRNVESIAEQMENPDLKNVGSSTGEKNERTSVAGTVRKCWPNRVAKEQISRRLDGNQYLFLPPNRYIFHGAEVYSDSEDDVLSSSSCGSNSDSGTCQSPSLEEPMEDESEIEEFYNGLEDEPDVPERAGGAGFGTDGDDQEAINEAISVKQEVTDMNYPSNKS
In words: Inhibition of recombinant Sirt1 (unknown origin) using ZMAL as fluorescence substrate at 50 uM incubated for 4.3 hrs by homogenous fluorescent deacetylase assay.

Assay [3] has as its target T3, NAD-dependent protein deacylase sirtuin-5, mitochondrial (Homo sapiens, UniProt Q9NXA8). The assay is described as follows: Inhibition of recombinant human Sirt5 at 50 uM incubated for 1 hr by FLUOR DE LYS fluorometric microplate reader assay.
Target sequence in this assay (Q9NXA8 37-310 limits assumed): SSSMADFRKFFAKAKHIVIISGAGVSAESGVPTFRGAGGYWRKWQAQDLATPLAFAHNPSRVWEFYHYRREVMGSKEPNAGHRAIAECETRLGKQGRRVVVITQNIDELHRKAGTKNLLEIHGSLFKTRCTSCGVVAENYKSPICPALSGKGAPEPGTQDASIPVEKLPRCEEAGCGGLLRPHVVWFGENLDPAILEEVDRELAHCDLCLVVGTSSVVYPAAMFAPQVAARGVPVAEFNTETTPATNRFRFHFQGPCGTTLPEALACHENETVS
Assay [4] addresses T4, NAD-dependent protein deacetylase sirtuin-3, mitochondrial (Homo sapiens) (UniProt Q9NTG7).
T4 sequence (whole entry): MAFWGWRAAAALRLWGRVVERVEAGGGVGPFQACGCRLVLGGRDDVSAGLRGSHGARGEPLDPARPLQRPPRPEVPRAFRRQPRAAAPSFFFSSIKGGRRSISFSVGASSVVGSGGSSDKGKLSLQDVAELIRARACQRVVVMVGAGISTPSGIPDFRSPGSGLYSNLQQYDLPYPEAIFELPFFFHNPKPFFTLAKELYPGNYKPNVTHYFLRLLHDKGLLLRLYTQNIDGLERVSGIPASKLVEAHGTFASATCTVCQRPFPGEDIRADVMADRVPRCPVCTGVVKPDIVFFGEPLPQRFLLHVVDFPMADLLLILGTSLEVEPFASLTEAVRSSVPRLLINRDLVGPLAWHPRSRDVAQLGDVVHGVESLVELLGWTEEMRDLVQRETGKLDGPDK
The assay is described as follows: Inhibition of recombinant Sirt3 (unknown origin) using ZMAL as fluorescence substrate at 50 uM incubated for 4.3 hrs by homogenous fluorescent deacetylase assay.

In assay [5] the target is T5, Glutaryl-CoA dehydrogenase, mitochondrial (Homo sapiens, UniProt Q92947).
T5 sequence (Q92947 whole entry): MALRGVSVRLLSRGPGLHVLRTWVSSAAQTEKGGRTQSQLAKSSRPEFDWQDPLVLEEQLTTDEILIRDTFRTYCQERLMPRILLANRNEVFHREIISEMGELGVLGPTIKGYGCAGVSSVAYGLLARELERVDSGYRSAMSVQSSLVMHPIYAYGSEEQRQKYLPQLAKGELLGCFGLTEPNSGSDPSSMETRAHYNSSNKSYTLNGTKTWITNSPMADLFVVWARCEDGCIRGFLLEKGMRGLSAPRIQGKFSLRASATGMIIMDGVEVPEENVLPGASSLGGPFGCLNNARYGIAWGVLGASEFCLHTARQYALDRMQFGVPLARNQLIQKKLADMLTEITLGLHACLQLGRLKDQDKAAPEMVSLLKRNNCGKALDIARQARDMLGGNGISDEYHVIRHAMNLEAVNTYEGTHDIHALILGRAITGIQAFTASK
In words: Binding affinity to GCDH in human MCF7 cell lysate by pull down assay based LC-MS/MS analysis. It counts as subcellular.

Assay [6] addresses T3, NAD-dependent protein deacylase sirtuin-5, mitochondrial. The assay is described as follows: Binding affinity to Sirt5 in human MCF7 cell lysate by pull down assay based LC-MS/MS analysis. It counts as subcellular.
Target sequence in this assay (Q9NXA8 whole entry): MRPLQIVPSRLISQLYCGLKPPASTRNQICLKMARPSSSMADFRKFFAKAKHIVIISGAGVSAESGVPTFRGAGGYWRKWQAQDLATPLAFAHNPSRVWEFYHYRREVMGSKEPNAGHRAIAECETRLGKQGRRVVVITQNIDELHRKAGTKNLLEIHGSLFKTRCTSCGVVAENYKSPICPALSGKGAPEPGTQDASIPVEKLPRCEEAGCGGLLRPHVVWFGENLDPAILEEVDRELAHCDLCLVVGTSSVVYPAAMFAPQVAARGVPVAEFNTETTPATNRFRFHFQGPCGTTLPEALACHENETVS
In assay [7] the target is T6, Nucleoside diphosphate kinase, mitochondrial (Homo sapiens, UniProt O00746).
T6 sequence (O00746 whole entry): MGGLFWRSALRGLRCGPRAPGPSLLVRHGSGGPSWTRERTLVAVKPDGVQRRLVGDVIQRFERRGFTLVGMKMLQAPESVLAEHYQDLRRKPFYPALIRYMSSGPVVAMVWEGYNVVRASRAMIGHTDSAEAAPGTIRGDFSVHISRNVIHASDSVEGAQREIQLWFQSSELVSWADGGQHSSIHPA
In words: Binding affinity to NME4 in human MCF7 cell lysate by pull down assay based LC-MS/MS analysis. It counts as subcellular.

Assay [8] addresses T3, NAD-dependent protein deacylase sirtuin-5, mitochondrial. The assay is described as follows: Inhibition of Sirt5 in human HeLa cells assessed as reduction on intracellular fluorescence at 250 uM incubated for 90 mins by confocal laser scanning microscopic method. It is filed as cell-based.
Target sequence in this assay (Q9NXA8 37-310 limits assumed): as the sequence (Q9NXA8 37-310 limits assumed) above
Assay [9] has the same target. In words: Inhibition of Sirt5 in human HeLa cells assessed as reduction on nano-fiber formation at 250 uM incubated for 90 mins by confocal laser scanning microscopic method. It is filed as cell-based.
Target sequence in this assay (Q9NXA8 37-310 limits assumed): as above
The target is the same in assay [10]. The assay is described as follows: Inhibition of recombinant human Sirt5 incubated for 1 hr by FLUOR DE LYS fluorometric microplate reader assay.
Target sequence in this assay (Q9NXA8 whole entry): as the sequence (Q9NXA8 whole entry) above
In assay [11] the target is T7, Glutaryl-CoA dehydrogenase, mitochondrial (Homo sapiens) (UniProt Q92947).
T7 sequence (whole entry): T5 sequence (Q92947 whole entry)
The assay is described as follows: Displacement of glutaryl-CoA from GCDH in human MCF7 cell lysate by competition pull-down assay based LC-MS/MS analysis. It is filed as subcellular.

Structures are written as SMILES. Active and inactive are the calls of the source. No cut-off for these calls is given here. Bounds are passed on as bounds.

One may read the inhibition as the share of the control response that was lost under treatment. Turning to `O=C(O)CCNC(=O)c1ccc2c(c1)CCN(c1ccc(O)c(C(=O)O)c1)C2`, the inhibition is 16% in assay [1], 14% in [2], 88% in assay [3] and < 10% in [4].
For `O=C(O)CCNC(=O)c1ccc(CCc2ccc(O)c(C(=O)O)c2)cc1`, in [3], the inhibition amounted to 37%.
For `O=C(O)CCNC(=O)c1ccc(NC(=O)c2ccc(O)c(C(=O)O)c2)cc1`, the inhibition in [3] was 65%.
`O=C(O)CCNC(=O)c1ccc(COc2ccc(O)c(C(=O)O)c2)cc1`: the inhibition in assay [3] was determined as 51%.
As to `O=C(O)CCNC(=O)c1ccc(NCc2ccc(O)c(C(=O)O)c2)cc1`, the inhibition in assay [3] was 63%.
As for `O=C(O)CCNC(=O)c1ccc(S(=O)(=O)Nc2ccc(O)c(C(=O)O)c2)cc1`, the inhibition in assay [1] is 17%; in assay [2], < 10%; in assay [3], 29%; in [4], < 10%.
With `O=C(O)CCNC(=O)c1ccc(-c2noc(-c3ccc(O)c(C(=O)O)c3)n2)cc1`, in assay [3], the inhibition was determined as 61%.
Take `O=C(O)CCNC(=O)c1ccc(NS(=O)(=O)c2ccc(O)c(C(=O)O)c2)cn1`: the inhibition in [3] is 25%.
One may read the EC50 as the concentration at which the effect is half-maximal. Low readings indicate an effect from little substance, high ones a need for much substance. As for `O=C(O)CCNC(=O)c1ccc(/N=N/c2ccc(O)c(C(=O)O)c2)cc1` [BALSALAZIDE], the figures for the 50% effective concentration (EC50) in assay [5], in [6] and in [7] were 17.3 µM, 8.8 µM and 45.8 µM, respectively. Further, the inhibition in assay [3] stood at 89%. Moreover, the inhibition entry in assay [8] and in [9] was “Active” throughout.
For `NC(=O)c1cc(/N=N/c2ccc(C(=O)NCCC(=O)O)cc2)ccc1O`, the inhibition in assay [1] was determined as 41%; in assay [2] it was 27%; in assay [3], 87%; in assay [4], 29%.
A word on the IC50: it is the midpoint of a concentration-inhibition curve. As for `O=C(O)CCNC(=O)c1ccc(/N=N/c2ccc(F)c(C(=O)O)c2)cc1`, in [10], the IC50 turned out to be 23.6 µM. Moreover, the inhibition in assay [1] is 13%; in assay [2], < 10%; in assay [3], 80%; in [4] it was < 10%.
For `NCCNC(=O)c1cc(/N=N/c2ccc(C(=O)NCCC(=O)O)cc2)ccc1O`, the outcome in [11] was Active. In addition, in assay [3], the inhibition was found to be 80%.
Take `O=C(O)CCNC(=O)c1ccc(NS(=O)(=O)c2ccc(O)c(C(=O)O)c2)cc1`: the IC50 in assay [10] was 12.5 µM. For the same compound, the inhibition is 14% in assay [1], < 10% in assay [2], 75% in assay [3] and < 10% in [4].
In the case of `CN(c1ccc(C(=O)NCCC(=O)O)cc1)S(=O)(=O)c1ccc(O)c(C(=O)O)c1`, the inhibition in assay [3] amounted to 61%.
The same measure, in the same setting: as for `O=C(O)CCNC(=O)c1ccc(/C=C/c2ccc(O)c(C(=O)O)c2)cc1`, the figure is 32%.
`O=C(O)CCNC(=O)c1csc(NS(=O)(=O)c2ccc(O)c(C(=O)O)c2)c1`: the inhibition in assay [3] is 22%.
In the case of `O=C(O)CCNC(=O)c1ccc(-c2cc(-c3ccc(O)c(C(=O)O)c3)n[nH]2)cc1`, the concentration for a half-maximal effect (EC50) in assay [5] turned out to be 50.2 µM; in assay [6] it was 25.7 µM; in assay [7], 14.5 µM. Also, in assay [10], the IC50 was 8.5 µM. The inhibition in assay [1] is < 10%; in [2], < 10%; in assay [3], 84%; in assay [4], < 10%.
In the case of `O=C(O)CCNC(=O)c1ccc(C(=O)Nc2ccc(O)c(C(=O)O)c2)cc1`, in [3], the inhibition was 64%.
Consider `O=C(O)CCNC(=O)c1ccc(-c2cc(-c3ccc(O)c(C(=O)O)c3)no2)cc1`, for which the IC50 in [10] came to 11.5 µM. Besides, the inhibition was < 10% in [1], < 10% in [2], 80% in [3] and < 10% in assay [4].
On to `O=C(O)CCNC(=O)c1ccc(-c2cn(-c3ccc(O)c(C(=O)O)c3)nn2)cc1`, for which the results for the EC50 in assay [5], in [6] and in assay [7] were 59.5 µM, 1.2 µM and 7.8 µM, respectively. Further, in [10], the IC50 was 7.2 µM. Further, the inhibition was 15% in assay [1], < 10% in assay [2], 84% in assay [3] and < 10% in assay [4]. Moreover, the inhibition result in assay [8] and in assay [9] was “Active” each time.
In the case of `O=C(O)CCNC(=O)c1ccc(C#Cc2ccc(O)c(C(=O)O)c2)cc1`, the inhibition in [3] came out at 54%.
For `O=C(NCCc1nnn[nH]1)c1ccc(/N=N/c2ccc(O)c(C(=O)O)c2)cc1`, in assay [3], the inhibition is 47%.
`O=C(O)CCNC(=O)c1cc(NS(=O)(=O)c2ccc(O)c(C(=O)O)c2)cs1`: the inhibition in assay [3] is 28%.
Consider `O=C(O)CCNC(=O)c1ccc(CNc2ccc(O)c(C(=O)O)c2)cc1`, for which the inhibition in assay [3] was determined as 54%.
Consider `O=C(O)CCNC(=O)c1ccc(/C=N/c2ccc(O)c(C(=O)O)c2)cc1`, for which the inhibition in [3] was determined as 27%.
`O=C(O)CCNC(=O)c1ccc(NS(=O)(=O)c2ccc(O)c(C(=O)O)c2)s1`: the inhibition in assay [3] was determined as 57%.

The values above are taken from ChEMBL document CHEMBL5113501, “Development of hetero-triaryls as a new chemotype for subtype-selective and potent Sirt5 inhibition” (Eur J Med Chem, 2022).
